Legend:
[1] = stability of ascorbic acid in the cream, UV determination at 266.5 nm; format: physicochemical; settings: cream of Example 3, 4 months at room temperature then 45° C. for one month
Protocol: The stability of the ascorbic acid contained in the cream was determined as follows.
A series of samples of the cream contained in the said small plastic jars was kept for a period of 4 months at room temperature and then in an oven at 45° C. for one month, after which the ascorbic acid content of the cream was checked.
In order to determine the ascorbic acid content, 100 mg of cream were diluted in 100 ml of 0.1 M phosphate buffer at pH 6, and the thus obtained suspension was magnetically stirred in the dark for 20 minutes. Thereafter, 30 ml of the suspension were transferred to a 50 ml centrifuge tube and 15 ml of chloroform were added. The tube was shaken for 10 minutes and then centrifuged at 6000 rpm for 5 minutes. The upper aqueous phase was directly analyzed with a UV Vis Jasco V-350 spectrophotometer, using phosphate buffer as a blank and the ascorbic acid peak at 266.5 nm was measured.
The ascorbic acid concentration was determined by means of a calibration curve made from standard solutions containing 1.0, 1.5 and 2.0 mg ascorbic acid/100 ml phosphate buffer.

[2] = stability test of the cream, twelve weeks at 45° C., viscosity check and HPLC content; format: physicochemical; settings: cream of Example 1, twelve weeks at 45° C.; nominal tocopherol 5, Greenselect 0.5, Leucoselect 0.5
Protocol: The cream was packed in plastics containers of 50 ml and subjected to a test to confirm the stability. A series of samples of the cream contained in the said small plastic jars was kept in an oven at 45° C. for twelve weeks, after which the viscosity of the cream was checked and found unaltered with respect to the starting value.
In addition there was the verification of the amount of polyphenols and vitamin E present in the cream at the end of the twelve weeks at 45° C., by means of an HPLC method, using a Macherey-Nagel column, Nucleosil 100-5 C18, packed with 5 μm particles (150×4.6 mm internal diameter), and a pre-column system Nucleosil 100-5 C18, CC 8/4.
The determination of free tocopherol, carried out using methanol as the eluent in isocratic conditions, with a flow rate of 1 ml/min and λ 290 nm, gave a value of 5.2%.
The determination of the polyphenol concentration in the cream was carried out using a mobile phase in binary gradient as eluent, composed of: phase A=0.3% formic acid in water and phase B=methanol; flow rate 1 ml/min; λ=278 nm. In such conditions the Greenselect® has a retention time Rt=22.84 min and the Leucoselect® Rt=6.53 min.

Row | ascorbic acid lost by the end of the storage period [1] | ascorbic acid concentration from the calibration curve ([1]; nominal 2 mg/100 ml) | amount present in the cream at the end of storage (HPLC) [2] | Compound
1 | 7.8% | 1.844 mg/100 ml | – | O=C1O[C@H]([C@@H](O)CO)C(O)=C1O [ascorbic acid, Ascorbic acid]
2 | – | – | 5.2% | Cc1c(C)c2c(c(C)c1O)CC[C@@](C)(CCC[C@H](C)CCC[C@H](C)CCCC(C)C)O2 [free tocopherol, Tocopherol]

Reference: US20160095810A1, “Cosmetic and/or dermatological compositions containing polyphenols stabilized by perfluoropolyether phosphates and use of perfluoropolyether phosphates as stabilizing agents for polyphenols” (BIO.LO.GA, priority 2003, published 2016)
